ChEMBL document CHEMBL3045446, “In vitro antimicrobial and antimycobacterial activity of some chalcones and their derivatives” (2013)
Converted amounts (≈) assume the structure as drawn.

What was measured:
Type in all cases: functional
[1] = test system: Candida albicans; experiment: Antimicrobial activity against Candida albicans MTCC 183 assessed as growth inhibition after 48 hr by agar streak dilution method; conditions: MTCC 183, 48 h
[2] = test system: Shigella flexneri; experiment: Antimicrobial activity against Shigella flexneri MTCC1457 assessed as diameter of growth inhibition zone after 24 hr
[3] = test system: Aspergillus clavatus; experiment: Antimicrobial activity against Aspergillus clavatus MTCC 1323 assessed as diameter of growth inhibition zone after 48 hr
[4] = test system: Pseudomonas aeruginosa; experiment: Antimicrobial activity against Pseudomonas aeruginosa MTCC 741 assessed as diameter of growth inhibition zone after 24 hr
[5] = test system: Mycobacterium tuberculosis; experiment: Antituberculosis activity against Mycobacterium tuberculosis H37Rv assessed as growth inhibition after 12 to 28 days by L-J MIC method; conditions: for MIC: Mycobacterium tuberculosis, H37Rv
[6] = test system: Candida albicans; experiment: Antimicrobial activity against Candida albicans MTCC 183 assessed as diameter of growth inhibition zone after 48 hr
[7] = test system: Pseudomonas aeruginosa; experiment: Antimicrobial activity against Pseudomonas aeruginosa MTCC 741 assessed as growth inhibition after 24 hr by agar streak dilution method; conditions: MTCC 741, 24 h
[8] = test system: Escherichia coli; experiment: Antimicrobial activity against Escherichia coli MTCC 739 assessed as diameter of growth inhibition zone after 24 hr
[9] = test system: Bacillus cereus; experiment: Antimicrobial activity against Bacillus cereus MTCC 430 assessed as growth inhibition after 24 hr by agar streak dilution method; conditions: MTCC 430, 24 h
[10] = test system: Escherichia coli; experiment: Antimicrobial activity against Escherichia coli MTCC 739 assessed as growth inhibition after 24 hr by agar streak dilution method; conditions: MTCC 739, 24 h
[11] = test system: Aspergillus niger; experiment: Antimicrobial activity against Aspergillus niger MTCC 282 assessed as growth inhibition after 48 hr by agar streak dilution method; conditions: MTCC 282, 48 h
[12] = test system: Bacillus cereus; experiment: Antimicrobial activity against Bacillus cereus MTCC 430 assessed as diameter of growth inhibition zone after 24 hr
[13] = test system: Salmonella typhi; experiment: Antimicrobial activity against Salmonella enterica subsp. enterica serovar Typhi MTCC 733 assessed as diameter of growth inhibition zone after 24 hr
[14] = test system: Proteus vulgaris; experiment: Antimicrobial activity against Proteus vulgaris MTCC 1771 assessed as diameter of growth inhibition zone after 24 hr
[15] = test system: Klebsiella pneumoniae; experiment: Antimicrobial activity against Klebsiella pneumoniae MTCC 109 assessed as diameter of growth inhibition zone after 24 hr
[16] = test system: Salmonella typhi; experiment: Antimicrobial activity against Salmonella enterica subsp. enterica serovar Typhi MTCC 733 assessed as growth inhibition after 24 hr by agar streak dilution method; conditions: MTCC 733, 24 h
[17] = test system: Aspergillus fumigatus; experiment: Antimicrobial activity against Aspergillus fumigatus MTCC 343 assessed as diameter of growth inhibition zone after 48 hr
[18] = test system: Staphylococcus aureus; experiment: Antimicrobial activity against Staphylococcus aureus MTCC 96 assessed as growth inhibition after 24 hr by agar streak dilution method; conditions: MTCC 96, 24 h
[19] = test system: Shigella flexneri; experiment: Antimicrobial activity against Shigella flexneri MTCC1457 assessed as growth inhibition after 24 hr by agar streak dilution method; conditions: MTCC1457, 24 h
[20] = test system: Aspergillus clavatus; experiment: Antimicrobial activity against Aspergillus clavatus MTCC 1323 assessed as growth inhibition after 48 hr by agar streak dilution method; conditions: MTCC 1323, 48 h
[21] = test system: Staphylococcus aureus; experiment: Antimicrobial activity against Staphylococcus aureus MTCC 96 assessed as diameter of growth inhibition zone after 24 hr
[22] = test system: Aspergillus niger; experiment: Antimicrobial activity against Aspergillus niger MTCC 282 assessed as diameter of growth inhibition zone after 48 hr
[23] = test system: Aspergillus fumigatus; experiment: Antimicrobial activity against Aspergillus fumigatus MTCC 343 assessed as growth inhibition after 48 hr by agar streak dilution method; conditions: MTCC 343, 48 h
[24] = test system: Proteus vulgaris; experiment: Antimicrobial activity against Proteus vulgaris MTCC 1771 assessed as growth inhibition after 24 hr by agar streak dilution method; conditions: MTCC 1771, 24 h
[25] = test system: Klebsiella pneumoniae; experiment: Antimicrobial activity against Klebsiella pneumoniae MTCC 109 assessed as growth inhibition after 24 hr by agar streak dilution method; conditions: MTCC 109, 24 h

Row | Structure (SMILES) | MIC [1] | diameter of the inhibition zone (DIZ) [2] | diameter of the inhibition zone (DIZ) [3] | diameter of the inhibition zone (DIZ) [4] | growth inhibition (GI) [5] | MIC [5] | diameter of the inhibition zone (DIZ) [6] | MIC [7] | diameter of the inhibition zone (DIZ) [8] | MIC [9] | MIC [11] | diameter of the inhibition zone (DIZ) [12] | diameter of the inhibition zone (DIZ) [13] | diameter of the inhibition zone (DIZ) [14] | diameter of the inhibition zone (DIZ) [15] | MIC [16] | diameter of the inhibition zone (DIZ) [17] | MIC [18] | MIC [19] | MIC [20] | also measured
1 | COc1ccc(-c2cc(-c3ccc(Nc4cc(=O)oc5ccccc45)cc3)nc(N)c2C#N)cc1OC | 6.25 µg/mL (≈ 12.7 µM) | 27 mm | 25 mm | 25 mm | 99% | 12.5 µg/mL (≈ 25.5 µM) | 27 mm | 6.25 µg/mL (≈ 12.7 µM) | 26 mm | 6.25 µg/mL (≈ 12.7 µM) | 6.25 µg/mL (≈ 12.7 µM) | 26 mm | 27 mm | 25 mm | 28 mm | 3.12 µg/mL (≈ 6.36 µM) | 28 mm | 3.12 µg/mL (≈ 6.36 µM) | 6.25 µg/mL (≈ 12.7 µM) | 6.25 µg/mL (≈ 12.7 µM) | MIC [10]: 6.25 µg/mL (≈ 12.7 µM); diameter of the inhibition zone (DIZ) [21]: 29 mm; diameter of the inhibition zone (DIZ) [22]: 27 mm; MIC [23]: 3.12 µg/mL (≈ 6.36 µM); MIC [24]: 6.25 µg/mL (≈ 12.7 µM); MIC [25]: 3.12 µg/mL (≈ 6.36 µM)
2 | CC(=O)N1N=C(c2ccc(Nc3cc(=O)oc4ccccc34)cc2)CC1c1ccc(Cl)cc1Cl (configuration not stated) | 100 µg/mL (≈ 203 µM) | 17 mm | 16 mm | 20 mm | 96% | 500 µg/mL (≈ 1020 µM) | 15 mm | 25 µg/mL (≈ 50.8 µM) | 18 mm | 12.5 µg/mL (≈ 25.4 µM) | 100 µg/mL (≈ 203 µM) | 21 mm | 17 mm | 22 mm | 19 mm | 50 µg/mL (≈ 102 µM) | 19 mm | 12.5 µg/mL (≈ 25.4 µM) | 50 µg/mL (≈ 102 µM) | 100 µg/mL (≈ 203 µM) | MIC [10]: 50 µg/mL (≈ 102 µM); diameter of the inhibition zone (DIZ) [21]: 22 mm; diameter of the inhibition zone (DIZ) [22]: 17 mm; MIC [23]: 50 µg/mL (≈ 102 µM); MIC [24]: 12.5 µg/mL (≈ 25.4 µM); MIC [25]: 25 µg/mL (≈ 50.8 µM)
3 | CC(=O)N1N=C(c2ccc(Nc3cc(=O)oc4ccccc34)cc2)CC1c1ccc(C)cc1 (configuration not stated) | 100 µg/mL (≈ 229 µM) | 20 mm | 11 mm | 16 mm | 98% | 200 µg/mL (≈ 457 µM) | 14 mm | 100 µg/mL (≈ 229 µM) | 12 mm | 100 µg/mL (≈ 229 µM) | 50 µg/mL (≈ 114 µM) | 16 mm | 14 mm | 20 mm | 13 mm | 100 µg/mL (≈ 229 µM) | 15 mm | 100 µg/mL (≈ 229 µM) | 50 µg/mL (≈ 114 µM) | 100 µg/mL (≈ 229 µM) | MIC [10]: 100 µg/mL (≈ 229 µM); diameter of the inhibition zone (DIZ) [21]: 16 mm; diameter of the inhibition zone (DIZ) [22]: 19 mm; MIC [23]: 100 µg/mL (≈ 229 µM); MIC [24]: 50 µg/mL (≈ 114 µM); MIC [25]: 100 µg/mL (≈ 229 µM)
4 | Nc1nc(-c2ccccc2)cc(-c2ccc(Nc3cc(=O)oc4ccccc34)cc2)n1 | 50 µg/mL (≈ 123 µM) | 14 mm | 21 mm | 12 mm | 95% | 500 µg/mL (≈ 1230 µM) | 17 mm | 100 µg/mL (≈ 246 µM) | 14 mm | 100 µg/mL (≈ 246 µM) | 50 µg/mL (≈ 123 µM) | 15 mm | 17 mm | 15 mm | 15 mm | 50 µg/mL (≈ 123 µM) | 19 mm | 100 µg/mL (≈ 246 µM) | 100 µg/mL (≈ 246 µM) | 25 µg/mL (≈ 61.5 µM) | MIC [10]: 100 µg/mL (≈ 246 µM); diameter of the inhibition zone (DIZ) [21]: 13 mm; diameter of the inhibition zone (DIZ) [22]: 17 mm; MIC [23]: 50 µg/mL (≈ 123 µM); MIC [24]: 100 µg/mL (≈ 246 µM); MIC [25]: 100 µg/mL (≈ 246 µM)
5 | O=C(O)c1cn(C2CC2)c2cc(N3CCNCC3)c(F)cc2c1=O [CIPROFLOXACIN] | – | 32 mm | – | 33 mm | – | – | – | 1 µg/mL (≈ 3.02 µM) | 32 mm | 1 µg/mL (≈ 3.02 µM) | – | 31 mm | 30 mm | 31 mm | 33 mm | 1 µg/mL (≈ 3.02 µM) | – | 1 µg/mL (≈ 3.02 µM) | ≤ 3 µg/mL | – | diameter of the inhibition zone (DIZ) [21]: 30 mm; MIC [24]: 1 µg/mL (≈ 3.02 µM); MIC [25]: 1 µg/mL (≈ 3.02 µM)
6 | CC[C@@H](CO)NCCN[C@@H](CC)CO [ETHAMBUTOL] | – | – | – | – | 99% | 3.12 µg/mL (≈ 15.3 µM) | – | – | – | – | – | – | – | – | – | – | – | – | – | – | –
7 | Cc1ccc(-c2cc(-c3ccc(Nc4cc(=O)oc5ccccc45)cc3)nc(N)c2C#N)cc1 | 3.12 µg/mL (≈ 7.02 µM) | 25 mm | 20 mm | 22 mm | 98% | 100 µg/mL (≈ 225 µM) | 28 mm | 12.5 µg/mL (≈ 28.1 µM) | 20 mm | 25 µg/mL (≈ 56.2 µM) | 12.5 µg/mL (≈ 28.1 µM) | 23 mm | 21 mm | 24 mm | 18 mm | 25 µg/mL (≈ 56.2 µM) | 21 mm | 25 µg/mL (≈ 56.2 µM) | 12.5 µg/mL (≈ 28.1 µM) | 25 µg/mL (≈ 56.2 µM) | MIC [10]: 25 µg/mL (≈ 56.2 µM); diameter of the inhibition zone (DIZ) [21]: 21 mm; diameter of the inhibition zone (DIZ) [22]: 24 mm; MIC [23]: 25 µg/mL (≈ 56.2 µM); MIC [24]: 12.5 µg/mL (≈ 28.1 µM); MIC [25]: 50 µg/mL (≈ 112 µM)
8 | COc1ccc(-c2cc(-c3ccc(Nc4cc(=O)oc5ccccc45)cc3)nc(N)c2C#N)cc1 | 12.5 µg/mL (≈ 27.1 µM) | 24 mm | 25 mm | 25 mm | 96% | 62.5 µg/mL (≈ 136 µM) | 25 mm | 6.25 µg/mL (≈ 13.6 µM) | 28 mm | 6.25 µg/mL (≈ 13.6 µM) | 12.5 µg/mL (≈ 27.1 µM) | 27 mm | 22 mm | 26 mm | 22 mm | 12.5 µg/mL (≈ 27.1 µM) | 21 mm | 6.25 µg/mL (≈ 13.6 µM) | 12.5 µg/mL (≈ 27.1 µM) | 6.25 µg/mL (≈ 13.6 µM) | MIC [10]: 3.12 µg/mL (≈ 6.78 µM); diameter of the inhibition zone (DIZ) [21]: 27 mm; diameter of the inhibition zone (DIZ) [22]: 25 mm; MIC [23]: 12.5 µg/mL (≈ 27.1 µM); MIC [24]: 6.25 µg/mL (≈ 13.6 µM); MIC [25]: 12.5 µg/mL (≈ 27.1 µM)
9 | CC(=O)N1CCN(c2ccc(OCC3COC(Cn4ccnc4)(c4ccc(Cl)cc4Cl)O3)cc2)CC1 (configuration not stated) [KETOCONAZOLE] | 1 µg/mL (≈ 1.88 µM) | – | 31 mm | – | – | – | 33 mm | – | – | – | ≤ 3 µg/mL | – | – | – | – | – | 29 mm | – | – | 1 µg/mL (≈ 1.88 µM) | diameter of the inhibition zone (DIZ) [22]: 30 mm; MIC [23]: 1 µg/mL (≈ 1.88 µM)
10 | CO[C@H]1/C=C/O[C@@]2(C)Oc3c(C)c(O)c4c(O)c(c(/C=N/N5CCN(C)CC5)c(O)c4c3C2=O)NC(=O)/C(C)=C\C=C\[C@H](C)[C@H](O)[C@@H](C)[C@@H](O)[C@@H](C)[C@H](OC(C)=O)[C@@H]1C [RIFAMPIN] | – | – | – | – | 99% | 0.25 µg/mL (≈ 0.304 µM) | – | – | – | – | – | – | – | – | – | – | – | – | – | – | –
11 | NC(=O)c1cnccn1 [PYRAZINAMIDE] | – | – | – | – | 99% | 6.25 µg/mL (≈ 50.8 µM) | – | – | – | – | – | – | – | – | – | – | – | – | – | – | –
12 | NNC(=O)c1ccncc1 [ISONIAZID] | – | – | – | – | 99% | 0.2 µg/mL (≈ 1.46 µM) | – | – | – | – | – | – | – | – | – | – | – | – | – | – | –
